Assay results reported in patent publication US20250353891A1 (MEDIMMUNE LIMITED, priority 2022, published 2025).
Read-outs that look alike come from different tables or passages of the source. Starred links: 1 amine or outer side, 2 acyl side, 3 side chain; linkers in the order of their positions; H or OH if unused. Non-standard residues stand in square brackets, D forms with d. Residues, ends and D or L forms follow the SMILES beside them. Groups on a side chain read outwards from the residue. *: point of attachment. C20 diacid = O=C(O)CCCCCCCCCCCCCCCCCCC(=O)*; C18 diacid = O=C(O)CCCCCCCCCCCCCCCCC(=O)*; Dip = N[C@H](C(=O)O)C(c1ccccc1)c1ccccc1; γGlu = O=C(O)[C@H](CCC(=O)[*:2])N[*:1]; Stearoyl = CCCCCCCCCCCCCCCCCC(=O)*; αMeF = C[C@](N)(Cc1ccccc1)C(=O)O; Myristoyl = CCCCCCCCCCCCCC(=O)*; Nle = CCCC[C@H](N)C(=O)O; PEG2 = NCCOCCOCCC(=O)O; AEEA = NCCOCCOCC(=O)O; Aib = CC(C)(N)C(=O)O

Assays:
[1] = Mouse acute food intake study; format: in vivo; details: male C57Bl/6 mice, s.c., cumulative food intake at 24 hr vs vehicle
Procedure, shortened: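 Peptide or vehicle went subcutaneously (5 mL/kg) to 6-8 h-fasted male C57Bl/6 mice shortly before the dark phase, with groups balanced on body weight and 24-hour intake. Cumulative food consumption was derived from 48 h of automated BioDaq monitoring with free food and water access.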

[2] = test system: GLP-1R knockout (KO) mice; experiment: Glucose change in GLP-1R knockout mice; format: in vivo, mouse; details: GLP-1R KO mice, s.c., 120 min vs 0 min
Experimental: (§1) They acclimated for a minimum of ˜1-2 weeks, and mice were sorted into groups (n=4-8/group) based on body weight. On day of study, mice were fasted briefly for 2 hrs prior to study start. In some studies, mice were pre-treated with octreotide (BaChem, 10 mg/kg) at 30 minutes prior to peptide injection. Glucose was measured via glucometer at various timepoints including-30 min (prior to octreotide when used in studies), 0 min (before peptide dose), 30, 60, 120, 180, 240, and 360 minutes. Since these studies are acute in nature, mice were re-used for multiple studies (no more than 3) and always allowed at least a minimum wash-out period of 1 week.

[3] = test system: wildtype (WT) mice; experiment: Glucose change in wildtype mice; format: in vivo, mouse; details: s.c., 120 min vs 0 min
Experimental: as §1, with “GLP-1R knockout (KO) and wildtype (WT) mice at 8-14 weeks of age were singly housed on standard chow diet (Envigo, 2918) and automatic water. They” for “They”

[4] = molecular target: human GLP-1 receptor (hGLP-1R) (Homo sapiens, UniProt P43220); experiment: cAMP production (HTRF) in CHO cells expressing hGLP-1R; format: cell-based; set-up: expressed in transfected cells; details: for EC50: cAMP in CHO hGLP-1R cells, geometric mean, read-out: hGLP-1R EC50; for % Relative Potency Ratio: % GLP-1R activity relative to GLP-1 / % GlucR activity relative to glucagon
Procedure, shortened: (§2)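 Potency values represent EC50 from 4-parameter logistic curves of HTRF % Delta F signal. Receptor-expressing CHO cells (hGCGR 2×10^5 cells/mL, hGLP-1R 1×10^5 cells/mL) were exposed for 30 min at room temperature before two-step cAMP detection.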

[5] = molecular target: human glucagon receptor (hGCGR) (Homo sapiens, UniProt P47871); experiment: cAMP production (HTRF) in CHO cells expressing hGCGR; format: cell-based; set-up: expressed in transfected cells; details: cAMP in CHO hGCGR cells, geometric mean, read-out: hGluc-R EC50
Procedure, shortened: as §2

[6] = 10 nmol/kg, somatostatin pretreatment (octreotide) 30 min prior to cpd
[7] = 30 nmol/kg, somatostatin pretreatment (octreotide) 30 min prior to cpd
[8] = Table 6, peptides modified at position 17
[9] = 3 nmol/kg, no somatostatin pretreatment
[10] = Table 7, peptides modified at position 20
[11] = 10 nmol/kg, no somatostatin pretreatment
[12] = 30 nmol/kg, no somatostatin pretreatment

Sequence of human glucagon receptor (hGCGR) (P47871 26-477): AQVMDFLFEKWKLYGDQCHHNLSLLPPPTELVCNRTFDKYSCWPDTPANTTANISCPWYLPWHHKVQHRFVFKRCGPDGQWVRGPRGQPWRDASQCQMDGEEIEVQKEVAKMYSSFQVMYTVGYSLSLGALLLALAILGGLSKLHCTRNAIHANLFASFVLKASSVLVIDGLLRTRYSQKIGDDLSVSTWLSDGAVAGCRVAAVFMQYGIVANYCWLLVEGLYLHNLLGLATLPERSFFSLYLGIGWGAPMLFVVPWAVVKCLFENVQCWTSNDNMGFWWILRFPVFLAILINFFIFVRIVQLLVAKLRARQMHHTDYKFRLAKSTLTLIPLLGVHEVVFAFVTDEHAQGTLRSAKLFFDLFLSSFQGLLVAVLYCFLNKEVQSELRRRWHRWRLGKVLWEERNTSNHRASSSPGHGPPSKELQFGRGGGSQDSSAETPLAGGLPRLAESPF
Sequence of human GLP-1 receptor (hGLP-1R) (P43220 24-463): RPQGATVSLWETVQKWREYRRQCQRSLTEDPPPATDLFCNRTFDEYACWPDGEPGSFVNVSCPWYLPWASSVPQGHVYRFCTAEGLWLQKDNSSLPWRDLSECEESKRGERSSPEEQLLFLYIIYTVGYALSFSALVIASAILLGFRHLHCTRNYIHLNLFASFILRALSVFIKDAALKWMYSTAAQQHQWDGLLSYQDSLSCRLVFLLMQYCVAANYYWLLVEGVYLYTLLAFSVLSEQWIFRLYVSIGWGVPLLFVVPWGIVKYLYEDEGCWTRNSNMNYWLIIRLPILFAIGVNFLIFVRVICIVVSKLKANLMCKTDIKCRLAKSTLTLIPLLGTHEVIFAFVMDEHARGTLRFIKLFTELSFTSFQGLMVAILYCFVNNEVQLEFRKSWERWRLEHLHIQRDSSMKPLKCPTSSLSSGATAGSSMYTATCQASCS

Compound | 24 hr % Vehicle Food Intake ([1]; dose 10 nmol/kg) [%] | GLP-1R KO % glucose change 120 min [2, 6] [%] | GLP-1R KO % glucose change 120 min [2, 7] [%] | WT % glucose change 120 min [3, 6] [%] | WT % glucose change 120 min [3, 7] [%] | EC50 [4, 8] [nM] | % Relative Potency Ratio ([4]; Table 6) | EC50 [5, 8] [nM] | GLP-1R KO % glucose change 120 min [2, 9] [%] | WT % glucose change 120 min [3, 9] [%] | EC50 [4, 10] [nM] | % Relative Potency Ratio ([4]; Table 7) | EC50 [5, 10] [nM] | 24 hr % Vehicle Food Intake ([1]; dose 3 nmol/kg) [%] | GLP-1R KO % glucose change 120 min [2, 11] [%] | GLP-1R KO % glucose change 120 min [2, 12] [%] | WT % glucose change 120 min [3, 11] [%] | WT % glucose change 120 min [3, 12] [%]
CCCCCCCCCCCCCC(=O)N[C@@H](CCC(=O)N[C@@H](CCC(=O)NCCOCCOCCC(=O)NCCOCCOCCC(=O)NCCCC[C@H](NC(=O)[C@H](CO)NC(=O)[C@H](CC(=O)O)NC(=O)[C@H](CC(C)C)NC(=O)[C@@H](NC(=O)[C@H](CCCCN)NC(=O)[C@H](CO)NC(=O)[C@@H](NC(=O)[C@H](CC(=O)O)NC(=O)[C@H](CO)NC(=O)[C@@H](NC(=O)[C@](C)(Cc1ccccc1)NC(=O)[C@H](CO)NC(=O)CNC(=O)[C@H](CCC(N)=O)NC(=O)[C@H](CO)NC(=O)[C@@H](N)Cc1c[nH]cn1)[C@@H](C)O)C(C)C)C(c1ccccc1)c1ccccc1)C(=O)N[C@@H](C)C(=O)N[C@@H](C)C(=O)N[C@@H](CCC(N)=O)C(=O)N[C@@H](CC(=O)O)C(=O)N[C@@](C)(Cc1ccccc1)C(=O)N[C@H](C(=O)N[C@@H](CCC(=O)O)C(=O)NC(C)(C)C(=O)N[C@H](C(=O)N[C@H](C(=O)N[C@@H](CC(N)=O)C(=O)N[C@H](C(N)=O)[C@@H](C)O)[C@@H](C)CC)[C@@H](C)CC)C(C)C)C(=O)O)C(=O)O [Peptide 63] (H-HSQGS[αMeF]TSDVSK[Dip]LDSK([PEG2-PEG2-γGlu-γGlu-Myristoyl])AAQD[αMeF]VE[Aib]IINT-NH2; N-terminus assumed) | 37.9 | 68.2 | 113.0 | −26.4 | −23.8 | 0.00314 | 1.6 | 0.00249 | – | – | – | – | – | – | – | – | – | –
CCCCCCCCCCCCCCCCCC(=O)N[C@@H](CCC(=O)N[C@@H](CCC(=O)NCCOCCOCCC(=O)NCCOCCOCCC(=O)NCCCC[C@H](NC(=O)[C@H](CO)NC(=O)[C@H](CC(=O)O)NC(=O)[C@H](CC(C)C)NC(=O)[C@](C)(Cc1ccccc1)NC(=O)[C@H](CCCCN)NC(=O)[C@H](CO)NC(=O)[C@@H](NC(=O)[C@H](CC(=O)O)NC(=O)[C@H](CO)NC(=O)[C@@H](NC(=O)[C@H](Cc1ccccc1)NC(=O)[C@@H](NC(=O)CNC(=O)[C@H](CCC(N)=O)NC(=O)C(C)(C)NC(=O)[C@@H](N)Cc1c[nH]cn1)[C@@H](C)O)[C@@H](C)O)C(C)C)C(=O)N[C@@H](CCCNC(=N)N)C(=O)N[C@@H](C)C(=O)N[C@@H](CCC(N)=O)C(=O)N[C@@H](CC(=O)O)C(=O)N[C@@](C)(Cc1ccccc1)C(=O)N[C@H](C(=O)N[C@@H](CCC(N)=O)C(=O)NC(C)(C)C(=O)N[C@@H](CC(C)C)C(=O)N[C@@H](CCCC)C(=O)N[C@@H](CCC(=O)O)C(=O)N[C@H](C(N)=O)[C@@H](C)O)C(C)C)C(=O)O)C(=O)O [Peptide 69] (H-H[Aib]QGTFTSDVSK[αMeF]LDSK([PEG2-PEG2-γGlu-γGlu-Stearoyl])RAQD[αMeF]VQ[Aib]L[Nle]ET-NH2; N-terminus assumed) | 74.3 | – | – | – | – | – | 11.1 | – | 17.6 | −27.2 | – | – | – | – | – | – | – | –
CC[C@H](C)[C@H](NC(=O)[C@H](Cc1c[nH]c2ccccc12)NC(=O)[C@H](CCC(N)=O)NC(=O)[C@@H](NC(=O)[C@H](Cc1ccccc1)NC(=O)[C@H](CC(=O)O)NC(=O)[C@H](CCCCNC(=O)COCCOCCNC(=O)COCCOCCNC(=O)CC[C@H](NC(=O)CCCCCCCCCCCCCCCCC(=O)O)C(=O)O)NC(=O)[C@H](C)NC(=O)[C@H](C)NC(=O)[C@H](CCC(N)=O)NC(=O)[C@H](CO)NC(=O)[C@H](CC(=O)O)NC(=O)[C@H](CC(C)C)NC(=O)[C@](C)(Cc1ccccc1)NC(=O)[C@H](CCCCN)NC(=O)[C@H](CO)NC(=O)[C@@H](NC(=O)[C@H](CC(=O)O)NC(=O)[C@H](CO)NC(=O)[C@@H](NC(=O)[C@](C)(Cc1ccccc1)NC(=O)[C@H](CO)NC(=O)CNC(=O)[C@H](Cc1c[nH]cn1)NC(=O)C(C)(C)NC(=O)[C@@H](N)Cc1c[nH]cn1)[C@@H](C)O)C(C)C)C(C)C)C(=O)N[C@@H](C)C(=O)N[C@@H](CC(N)=O)C(=O)N[C@H](C(N)=O)[C@@H](C)O [Peptide 203] (H-H[Aib]HGS[αMeF]TSDVSK[αMeF]LDSQAAK([AEEA-AEEA-γGlu-C18 diacid])DFVQWIANT-NH2; N-terminus assumed) | 81.4 | 54.6 | 106.9 | −29.5 | −36.5 | – | – | – | – | – | 0.0775 | 0.9 | 0.0341 | – | – | – | – | –
CC[C@H](C)[C@H](NC(=O)[C@H](Cc1c[nH]c2ccccc12)NC(=O)[C@H](CCC(N)=O)NC(=O)[C@@H](NC(=O)[C@H](Cc1ccccc1)NC(=O)[C@H](CC(=O)O)NC(=O)[C@H](CCCCNC(=O)COCCOCCNC(=O)COCCOCCNC(=O)CC[C@H](NC(=O)CC[C@H](NC(=O)CCCCCCCCCCCCCCCCCCC(=O)O)C(=O)O)C(=O)O)NC(=O)[C@H](C)NC(=O)[C@H](C)NC(=O)[C@H](CCCNC(=N)N)NC(=O)[C@H](CO)NC(=O)[C@H](CC(=O)O)NC(=O)[C@H](CC(C)C)NC(=O)[C@H](Cc1ccc(O)cc1)NC(=O)[C@H](CCCCN)NC(=O)[C@H](CO)NC(=O)[C@@H](NC(=O)[C@H](CC(=O)O)NC(=O)[C@H](CO)NC(=O)[C@@H](NC(=O)[C@](C)(Cc1ccccc1)NC(=O)[C@H](CO)NC(=O)CNC(=O)[C@H](Cc1c[nH]cn1)NC(=O)C(C)(C)NC(=O)[C@@H](N)Cc1c[nH]cn1)[C@@H](C)O)C(C)C)C(C)C)C(=O)N[C@@H](C)C(=O)N[C@@H](CC(N)=O)C(=O)N[C@H](C(N)=O)[C@@H](C)O [Peptide 289] (H-H[Aib]HGS[αMeF]TSDVSKYLDSRAAK([AEEA-AEEA-γGlu-γGlu-C20 diacid])DFVQWIANT-NH2) | 49.6 | – | – | – | – | – | – | – | – | – | 0.118 | 2.5 | 0.148 | 76.1 | 8.9 | 7.7 | −8.5 | −16.1
